Laboratory results from patent US10875875B2, “Propionic acid derivatives and methods of use thereof” (Aviara Pharmaceuticals, Inc., priority 2017, dated 2020).

target: α4β1 (Homo sapiens, UniProt P05556+P13612); assay: α4β1 integrin inhibition, IC50; format: binding; conditions: read-out: α4β1 IC50
Sequence (P13612 34-1032): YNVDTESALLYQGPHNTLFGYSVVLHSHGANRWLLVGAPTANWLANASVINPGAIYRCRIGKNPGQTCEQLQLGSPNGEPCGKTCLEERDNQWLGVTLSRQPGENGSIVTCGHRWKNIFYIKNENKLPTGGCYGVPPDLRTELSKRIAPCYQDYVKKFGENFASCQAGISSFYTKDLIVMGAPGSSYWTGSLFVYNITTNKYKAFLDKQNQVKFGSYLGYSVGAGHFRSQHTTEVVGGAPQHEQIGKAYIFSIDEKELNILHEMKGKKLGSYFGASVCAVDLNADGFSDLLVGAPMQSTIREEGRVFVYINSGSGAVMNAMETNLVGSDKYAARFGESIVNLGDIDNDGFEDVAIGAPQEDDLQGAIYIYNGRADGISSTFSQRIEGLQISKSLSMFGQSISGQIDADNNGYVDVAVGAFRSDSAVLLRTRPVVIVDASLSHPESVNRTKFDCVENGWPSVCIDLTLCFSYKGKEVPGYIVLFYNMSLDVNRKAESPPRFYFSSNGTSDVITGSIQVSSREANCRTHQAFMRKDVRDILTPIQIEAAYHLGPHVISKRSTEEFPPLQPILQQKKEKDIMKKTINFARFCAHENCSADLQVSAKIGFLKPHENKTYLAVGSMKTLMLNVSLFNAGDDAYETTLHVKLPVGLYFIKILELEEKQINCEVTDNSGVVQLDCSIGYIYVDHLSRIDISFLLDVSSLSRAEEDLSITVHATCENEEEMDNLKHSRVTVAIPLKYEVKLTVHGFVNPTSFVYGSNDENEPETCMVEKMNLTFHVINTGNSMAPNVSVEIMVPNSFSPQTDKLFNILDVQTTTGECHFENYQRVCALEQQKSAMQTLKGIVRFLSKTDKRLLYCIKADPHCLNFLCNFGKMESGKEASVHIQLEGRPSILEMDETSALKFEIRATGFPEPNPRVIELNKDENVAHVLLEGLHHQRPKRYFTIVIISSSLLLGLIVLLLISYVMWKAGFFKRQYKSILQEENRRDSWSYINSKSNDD
Sequence (P05556 21-798): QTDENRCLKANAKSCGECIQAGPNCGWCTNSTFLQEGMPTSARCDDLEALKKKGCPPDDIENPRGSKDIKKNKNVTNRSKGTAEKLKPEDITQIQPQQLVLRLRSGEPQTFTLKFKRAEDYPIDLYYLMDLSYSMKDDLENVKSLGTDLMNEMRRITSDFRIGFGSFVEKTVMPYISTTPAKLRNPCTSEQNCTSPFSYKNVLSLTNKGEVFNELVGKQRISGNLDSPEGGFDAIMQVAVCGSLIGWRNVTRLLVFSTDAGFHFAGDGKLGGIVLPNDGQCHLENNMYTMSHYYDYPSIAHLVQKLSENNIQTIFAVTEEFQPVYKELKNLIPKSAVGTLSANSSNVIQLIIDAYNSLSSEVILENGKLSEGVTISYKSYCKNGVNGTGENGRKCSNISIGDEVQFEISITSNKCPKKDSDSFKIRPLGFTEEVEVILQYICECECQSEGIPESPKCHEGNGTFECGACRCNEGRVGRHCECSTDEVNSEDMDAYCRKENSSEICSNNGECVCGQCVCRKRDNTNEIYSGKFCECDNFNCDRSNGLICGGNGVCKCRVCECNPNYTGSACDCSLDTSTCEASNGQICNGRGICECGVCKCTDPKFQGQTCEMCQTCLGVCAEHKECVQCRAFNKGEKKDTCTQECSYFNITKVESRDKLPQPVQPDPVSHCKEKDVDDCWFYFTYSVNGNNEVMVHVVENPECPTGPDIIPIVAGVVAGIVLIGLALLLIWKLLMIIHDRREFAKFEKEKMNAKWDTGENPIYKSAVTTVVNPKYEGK

Compared with `Cc1cn(C)c(=O)c(NC(=O)N[C@@H](CC(=O)O)c2cccc(-c3ccccc3)c2C)c1O` [1-500, sodium (S)-3-(3-(1,5-dimethyl-4-oxido-2-oxo-1,2-dihydropyridin-3-yl)ureido)-3-(2-methylbiphenyl-3-yl)propanoate], `COc1cccc(-c2cccc([C@H](CC(=O)O)NC(=O)Nc3c(O)c(C)cn(C)c3=O)c2)c1OC` [1-504, sodium (S)-3-(2′,3′-dimethoxybiphenyl-3-yl)-3-(3-(1,5-dimethyl-4-oxido-2-oxo-1,2-dihydropyridin-3-yl)ureido)propanoate] is lower in IC50: over 200 nM for the first, under 20 nM for the second.

`COc1cccc(-c2cccc([C@H](CC(=O)O)NC(=O)Nc3c(O)ccn(C)c3=O)c2)c1` [1-501, sodium (S)-3-(3′-methoxybiphenyl-3-yl)-3-(3-(1-methyl-4-oxido-2-oxo-1,2-dihydropyridin-3-yl)ureido)propanoate] and `Cn1ccc(O)c(NC(=O)N[C@@H](CC(=O)O)c2cccc(-c3cccc(Cl)c3)c2)c1=O` [1-506, sodium (S)-3-(3′-chlorobiphenyl-3-yl)-3-(3-(1-methyl-4-oxido-2-oxo-1,2-dihydropyridin-3-yl)ureido)propanoate] cannot be ordered by IC50: under 20 nM for the first, under 20 nM for the second.

`Cc1cn(C)c(=O)c(NC(=O)NC(CC(=O)O)c2cccc(-c3cc(Cl)c(F)cc3F)c2)c1O` (stereo not shown) [1-503, sodium 3-(5′-chloro-2′,4′-difluorobiphenyl-3-yl)-3-(3-(1,5-dimethyl-4-oxido-2-oxo-1,2-dihydropyridin-3-yl)ureido)propanoate] and `Cc1cn(C)c(=O)c(NC(=O)NC(CC(=O)O)c2cccc(-c3ccc(Cl)cc3Cl)c2)c1O` (stereo not shown) [1-511, sodium 3-(2′,4′-dichlorobiphenyl-3-yl)-3-(3-(1,5-dimethyl-4-oxido-2-oxo-1,2-dihydropyridin-3-yl)ureido)propanoate] cannot be ordered by IC50: under 200 nM for the first, under 200 nM for the second.

`Cn1ccc(O)c(NC(=O)N[C@@H](CC(=O)O)c2cccc(-c3ccccc3)c2)c1=O` [1-505, sodium (S)-3-(biphenyl-3-yl)-3-(3-(1-methyl-4-oxido-2-oxo-1,2-dihydropyridin-3-yl)ureido)propanoate] and `Cn1ccc(O)c(NC(=O)N[C@@H](CC(=O)O)c2cccc(-c3ccccc3OC(F)(F)F)c2)c1=O` [1-512, sodium (S)-3-(3-(1-methyl-4-oxido-2-oxo-1,2-dihydropyridin-3-yl)ureido)-3-(2′-(trifluoromethoxy)biphenyl-3-yl)propanoate] cannot be ordered by IC50: under 20 nM for the first, under 20 nM for the second.

`Cn1ccc(O)c(NC(=O)N[C@@H](CC(=O)O)c2cccc(-n3cccc3)c2)c1=O` [1-507, sodium (S)-3-(3-(1H-pyrrol-1-yl)phenyl)-3-(3-(1-methyl-4-oxido-2-oxo-1,2-dihydropyridin-3-yl)ureido)propanoate] and `COc1cccc(-c2cccc([C@H](CC(=O)O)NC(=O)Nc3c(O)ccn(C)c3=O)c2)c1F` [1-509, sodium (S)-3-(2′-fluoro-3′-methoxybiphenyl-3-yl)-3-(3-(1-methyl-4-oxido-2-oxo-1,2-dihydropyridin-3-yl)ureido)propanoate] cannot be ordered by IC50: under 20 nM for the first, under 20 nM for the second.

`COc1ccc(-c2cccc([C@H](CC(=O)O)NC(=O)Nc3c(O)ccn(C)c3=O)c2)cn1` [1-508, sodium (S)-3-(3-(6-methoxypyridin-3-yl)phenyl)-3-(3-(1-methyl-4-oxido-2-oxo-1,2-dihydropyridin-3-yl)ureido)propanoate] and `Cn1ccc(O)c(NC(=O)N[C@@H](CC(=O)O)c2cccc(-c3ccc(OC(F)(F)F)cc3)c2)c1=O` [1-510, sodium (S)-3-(3-(1-methyl-4-oxido-2-oxo-1,2-dihydropyridin-3-yl)ureido)-3-(4′-(trifluoromethoxy)biphenyl-3-yl)propanoate] cannot be ordered by IC50: under 20 nM for the first, under 20 nM for the second.

`Cn1c2c(c(O)c(NC(=O)N[C@@H](CC(=O)O)c3cccc(-c4ccc(F)cc4F)c3)c1=O)CCC2` [1-513, sodium (S)-3-(2′,4′-difluorobiphenyl-3-yl)-3-(3-(1-methyl-4-oxido-2-oxo-2,5,6,7-tetrahydro-1H-cyclopenta[b]pyridin-3-yl)ureido)propanoate] gave an IC50 of under 20 nM.
